# From patent US20240000669A1, “NOVEL ENDODONTIC IRRIGANT” (INTER-MED, INC., priority 2020, published 2024)
# Tests used:
# [1] = Free available chlorine over time in 1:1 mixtures of chelating agent solutions with 3% NaOCl; type: physicochemical; conditions: for ability to maintain initial available chlorine, in words: after 1 hour, HEDP only above a pH of 11
# [2] = Preliminary investigation of smear layer removal (calcium chelation)
# From the text: (§1) A score of 1 indicates very little smear layer remaining, whereas a score of 5 indicates heavy smear layer present.
# [3] = Organic tissue dissolution capacity of antiseptic and chelating solutions (mass loss of tissue samples, FIG. 4); conditions: 30 mL aqueous solution, 30 minutes
# Experimental: Since the smear layer produced upon mechanical debridement of infected dental hard tissues includes both organic and inorganic dentin components, an investigation was conducted to determine the organic tissue dissolution capacity of various antiseptics and chelating solutions that are commonly used in dentistry and medical applications. For this purpose, soft tissue samples were incubated in aqueous solutions containing the agents to be studied and the mass loss of the tissue samples was measured. The results are collected in FIG. 4, where the average mass loss is given as a percentage fraction of the initial weight. FIG. 4 illustrates the mass loss (Mean %) of tissue samples incubated in 30 mL of aqueous solutions of various agents after 30 minutes. […] It can be seen that high concentrations of NaOCl along with the addition of surfactants (anionic and nonionic) tended to increase the tissue dissolution rate.
# [4] = Smear layer removal from instrumented root canals (smear layer score); conditions: score 1 = very little smear layer remaining, 5 = heavy smear layer present
# From the text: as §1
# [5] = Mass loss of tissue samples in sodium hypochlorite at different pH values (FIG. 6); conditions: 30 mL sodium hypochlorite, 30 minutes
# From the text: The organic tissue dissolution capacity of NaOCl may be a function of free available chlorine in solution and a function of alkalinity. As pH increases to above […] the proportion of the hypochlorite anion (OCl^−) to hypochlorous acid (HOCl) dramatically increases. Below this pH, the concentration of hypochlorite anion decreases and the concentration of HOCl increases (see FIG. 5, which illustrates the chlorine speciation profile as a function of pH). […] However, as the concentration of the hypochlorite ions decreases, the tissue dissolution capacity also decreases (see FIG. 6, which illustrates mass loss of tissue samples incubated in 30 mL of sodium hypochlorite at different pH values after 30 minutes.). In certain aspects of the invention, the medicament comprises HOCl and OCl— and has a pH between 8 and 10.
smiles,measurement,setting,value
"O=C(O)CCC(CC(=O)O)(C(=O)O)P(=O)(O)O (stereo not drawn) [PBTC, 2-phosphonobutane-1,2,4,-tricarboxylic Acid]","ability to maintain initial available chlorine, in words",[1],able to maintain most of their initial available chlorine
"O=P1([O-])OP(=O)([O-])OP(=O)([O-])OP(=O)([O-])OP(=O)([O-])OP(=O)([O-])O1.[Na+].[Na+].[Na+].[Na+].[Na+].[Na+] [SH, sodium hexametaphosphate]","ability to maintain initial available chlorine, in words",[1],able to maintain most of their initial available chlorine
same,"calcium chelator strength, in words",[2],relatively weak calcium chelators
"CC(O)(P(=O)(O)O)P(=O)(O)O [HEDP, 1-hydroxyethylidene-1,1-diphosphonic acid]",Free Available Chlorine Remaining Post Mix (hours): 0,"[1]; 0 h, HEDP 15% at pH 11.1, 1:1 mix with 3% NaOCl",100%
same,Free Available Chlorine Remaining Post Mix (hours): 1,"[1]; 1 h, HEDP 15% at pH 11.1, 1:1 mix with 3% NaOCl",80%
same,Free Available Chlorine Remaining Post Mix (hours): 4,"[1]; 4 h, HEDP 15% at pH 11.1, 1:1 mix with 3% NaOCl",40%
same,Free Available Chlorine Remaining Post Mix (hours): 24,"[1]; 24 h, HEDP 15% at pH 11.1, 1:1 mix with 3% NaOCl",20%
same,"ability to maintain initial available chlorine, in words",[1],able to maintain most of their initial available chlorine
"O=P(O)(O)O[C@H]1[C@H](OP(=O)(O)O)[C@@H](OP(=O)(O)O)[C@H](OP(=O)(O)O)[C@@H](OP(=O)(O)O)[C@H]1OP(=O)(O)O [PA, phytic acid (C6H6[OPO(OH)2]6)]","ability to maintain initial available chlorine, in words",[1],able to maintain most of their initial available chlorine
same,"calcium chelator strength, in words",[2],relatively weak calcium chelators
"OCl [NaOCl, sodium hypochlorite]","mass loss of tissue samples (FIG. 4), in words",[3],largest mass loss
same,"residual smear layer score, Apical",[4]; apical root canal third,3.5
same,"residual smear layer score, Coronal",[4]; coronal root canal third,3.2
same,"residual smear layer score, Middle",[4]; middle root canal third,3.6
same,"capability of dissolving organic tissue as a function of pH (FIG. 6), in words",[5],most capable of dissolving organic tissue at a pH above 8
